{"source": "patent US7326733B2", "about": "“Methods for increasing bone density” (The Forsyth Institute, priority 2003, dated 2008)", "key": {"Swiss Webster mice [1]": {"tested_on": "Swiss Webster mice", "assay": "Femur bone mass by microcomputer tomography after fluoxetine (Example 6)", "assay_type": "in vivo", "parameters": "Trabecular thickness: unit not given here", "conditions": "for Trabecular number / Trabecular spacing / Trabecular thickness / connectedness of trabeculae: hydrochloride"}, "Swiss Webster mice [2]": {"tested_on": "Swiss Webster mice", "assay": "Systemic fluoxetine, trabecular parameters in mice (Example 2)", "assay_type": "in vivo", "conditions": "fluoxetine 10 mg/kg i.p. once a day for 6 weeks, vs non-treated mice", "from_the_text": "After 6 weeks the animals were sacrificed and trabecular bones were examined.\nThe increased number, increased connectivity, and decreased space between the transversal structures (i.e. trabeculae) of “spongelike bone” is indicative of increased density and strength of trabecular bone."}, "[3]": {"tested_on": "cathepsin K, MMP-9, TRAP expression", "assay": "Northern blot analysis of osteoclast markers in RANKL-stimulated RAW 264.7 cells", "assay_type": "cell-based, mouse", "parameters": "reduction in the expression of cathepsin K / reduction in the expression of MMP-9 / reduction in the expression of TRAP: dose or concentration left out as unconfirmed", "experimental": "Total RNA was extracted from cells using the TRIAZOL reagent (Invitrogen Corporation, Carlsbad, Calif.), according to the manufacturer's instructions. For RT-PCR, […] of RNA were reversed-transcribed to cDNA using SuperScript II (Invitrogen Corporation, Carlsbad, Calif.) following the manufacturer's instructions. One-tenth of the cDNA was used as a template for the polymerase chain reaction (PCR) […] (35 cycles at 94° C. for 1 minute, 58° C. for 1 minute and 72° C. for 1 minute). For Northern blot analysis, […] of RNA were size fractionated on a 1.2% agarose denaturing gel and transferred onto nylon membranes. The membranes were hybridized to ^32P radiolabeled probes overnight at 42° C. in hybridization solution (50% formamide, 5× SSC, 5× Denhardt's solution, 0.5% SDS and […] salmon sperm DNA), washed twice to remove unbound probe in 1× SSC, 0.2% SDS at 50° C. for 20 minutes, and exposed to X-ray film. The DNA probes were generated by reverse transcriptase polymerase chain reaction (RT-PCR) from OCL RNA, using the following primer-pairs: […]"}, "[4]": {"tested_on": "normal mouse bone marrow cells (BMC)", "assay": "Osteoclast formation from normal mouse bone marrow cells with M-CSF and RANKL", "assay_type": "cell-based", "conditions": "TRAP staining", "experimental": "Mouse bone marrow cells were obtained from long bones of 2-week old C57B1 mice and cultured for 7 days in αMEM/FBS supplemented with 50 ng/ml RANKL and 50 ng/ml human M-CSF (PeproTech Inc., Rocky Hill, N.J.).\n(§1) Cells were stained for tartrate-resistant acid phosphatase (TRAP) using a commercially available kit (#387-A, Sigma-Aldrich, St. Louis, Mo.), according to the manufacturer's directions."}, "mice": {"tested_on": "mice", "assay": "New bone formation in calvarium after LPS or PTH plus fluoxetine, Van Giesson stain (Example 3)", "assay_type": "in vivo", "experimental": "LPS (50 μl at 5 μg/μl) or PTH was injected subcutaneously above the calvarial bone once on day one to stimulate the osteoclasts.\nAfter five days, the mice were sacrificed. The calvarium was fixed, decalcified, and analyzed histologically for new bone formation. Van Giesson stain was used to distinguish old bone from new bone (new bone stains blue). […] The x-axis represents arbitrary units of new bone formation, where 0 represents no new bone and 3 represents high amount of new bone."}, "[5]": {"tested_on": "Primary osteoblasts obtained from mouse calvaria", "assay": "Bone nodule formation in vitro, Von Kossa stain (Example 5)", "assay_type": "cell-based", "conditions": "two weeks in presence of Vitamin D, presence vs absence of fluoxetine", "experimental": "Primary osteoblasts obtained from mouse calvaria were cultured in vitro for two weeks. […] The cells were then fixed and stained with Von Kossa stain, which stains for calcium phosphate present in bone nodules. Bone nodules formed by osteoblasts in vitro have the same cellular and biochemical composition found in bone. The number of bone nodules were counted."}, "RAW 264.7 cells": {"tested_on": "RAW 264.7 cells", "assay": "RANKL-induced osteoclast formation by RAW 264.7 cells, TRAP staining", "assay_type": "cell-based, mouse", "conditions": "for osteoclast differentiation (TRAP+ multinucleated osteoclasts): exposure 4 days", "experimental": "RAW 264.7 mouse macrophage/monocytes (TIB-71) were purchased from ATCC (Manassas, Va.). Cells were cultured in DMEM/1.5 g/l sodium bicarbonate (JRH Biosciences, Lenexa, Kans.) plus 10% non-heat-inactivated FBS (Invitrogen Corporation Carlsbad, Calif.). When needed, 5-HT was stripped from the FBS by incubating it twice in 0.25% Dextran-coated charcoal (Sigma-Aldrich, St. Louis, Mo.) for 30 minutes at 45° C. Recombinant mouse soluble RANKL (Immunex Corp., Seattle, Wash.) was added at a concentration of 10 ng/ml. Recombinant murine RANKL is an NH2-terminal fusion of a leucine zipper trimerization domain (Fanslow et al., 1994, Semin. Immunol. 6(5):267-278) with residues 134-316 of murine RANKL. […] Cultures were also exposed to the VMAT inhibitor reserpine and the MAO-B inhibitor pargylline (Sigma-Aldrich, St. Louis, Mo.), at the indicated concentrations for 4 days. Mouse bone marrow cells were obtained from long bones of 2-week old C57B1 mice and cultured for 7 days in αMEM/FBS supplemented with 50 ng/ml RANKL and 50 ng/ml human M-CSF (PeproTech Inc., Rocky Hill, N.J.).\nas §1"}, "[6]": {"conditions": "cited from earlier work"}, "[7]": {"conditions": "femur, fluoxetine 10 mg/kg i.p. daily for six weeks, n = 6"}, "[8]": {"conditions": "femur, fluoxetine 10 mg/kg i.p. daily for six weeks, n = 6, listed as Fluoxetine"}, "[9]": {"conditions": "fluoxetine-treated vs untreated mice"}, "[10]": {"conditions": "RANKL-stimulated RAW 264.7 cells"}, "[11]": {"conditions": "added serotonin in 5-HT-depleted FBS, Days 3 and 4 after RANKL induction"}}, "note": "Entries after “also recorded” stand apart in the source; their conditions may differ."}
{"smiles": "CNCCC(Oc1ccc(C(F)(F)F)cc1)c1ccccc1.Cl", "note": "(racemic) [fluoxetine, (+/−)—N-methyl-3-phenyl-3-[(α,α,α-trifluoro-p-tolyl)oxy]propylamine hydrochloride]", "values": [{"measurement": "Bone surface", "setting": "Swiss Webster mice [1]; [7]", "value": "16.9 ± 7.3", "unit": "mm^2"}, {"measurement": "Trabecular number", "setting": "Swiss Webster mice [1]; [7]", "value": "significant increases"}, {"measurement": "Trabecular spacing", "setting": "Swiss Webster mice [1]; [7]", "value": "reduction"}, {"measurement": "Trabecular thickness", "setting": "Swiss Webster mice [1]; [7]", "value": "stable"}, {"measurement": "connectedness of trabeculae", "setting": "Swiss Webster mice [1]; [7]", "value": "better connected"}, {"measurement": "Bone volume/total volume", "setting": "Swiss Webster mice [1]; femur, fluoxetine 10 mg/kg i.p. daily for six weeks, n = 6, in % (unit assumed)", "value": "16.7 ± 7.3"}, {"measurement": "Trabecular number", "setting": "Swiss Webster mice [1]; [8]", "value": "3.26 ± 0.53"}, {"measurement": "Trabecular spacing", "setting": "Swiss Webster mice [1]; [8]", "value": "0.32 ± 0.05"}, {"measurement": "Trabecular thickness", "setting": "Swiss Webster mice [1]; [8]", "value": "0.09 ± 0.01"}, {"measurement": "connectedness of trabeculae", "setting": "Swiss Webster mice [1]; [8]", "value": "114.2 ± 53.0"}, {"measurement": "increase in bone mineral content", "setting": "Swiss Webster mice [1]; [9]", "value": 50, "unit": "%"}, {"measurement": "increase in bone surface", "setting": "Swiss Webster mice [1]; [9]", "value": 50, "unit": "%"}, {"measurement": "increase in bone volume/total volume", "setting": "Swiss Webster mice [1]; [9]", "value": 50, "unit": "%"}, {"measurement": "Trabecular spacing", "setting": "Swiss Webster mice [2]", "value": "decreased"}, {"measurement": "number of trabeculae per unit length of bone", "setting": "Swiss Webster mice [2]", "value": "increased"}, {"measurement": "thickness of trabeculae", "setting": "Swiss Webster mice [2]", "value": "no significant difference"}, {"measurement": "bone mineral content (BMC)", "setting": "Swiss Webster mice [2]; hydrochloride", "value": "increase"}, {"measurement": "connectedness of trabeculae", "setting": "Swiss Webster mice [2]; hydrochloride", "value": "more connected; also recorded: increase"}, {"measurement": "reduction in the expression of MMP-9", "setting": "[3]; [10]", "value": 80, "unit": "%"}, {"measurement": "reduction in the expression of TRAP", "setting": "[3]; [10]", "value": "~20", "unit": "%"}, {"measurement": "reduction in the expression of cathepsin K", "setting": "[3]; [10]", "value": "~70", "unit": "%"}, {"measurement": "BMC-derived osteoclast formation", "setting": "[4]", "value": "significantly inhibited"}, {"measurement": "new bone formation", "setting": "mice; LPS injected above calvarial bone on day one, fluoxetine 10 mg/kg i.p. once a day for five days, vs LPS alone, hydrochloride", "value": "increased new bone formation; also recorded: greater increase in new bone"}, {"measurement": "new bone formation", "setting": "mice; co-administration of fluoxetine and PTH, vs PTH alone", "value": "greater increase in new bone"}, {"measurement": "number of bone nodules", "setting": "[5]", "value": "increased"}, {"measurement": "formation of TRAP positive cells", "setting": "RAW 264.7 cells; RANKL-induced RAW 264.7 cells, fluoxetine concentration series", "value": "inhibited the formation of TRAP positive cells in a dose-dependent manner"}, {"measurement": "osteoclast differentiation (TRAP positive multinucleated cells)", "setting": "RAW 264.7 cells; RANKL-induced, 5-HT replete (FBS) and depleted (FBS−) serum", "value": "suppressed osteoclast differentiation"}, {"measurement": "half-life", "setting": "[6]; stated with the dosage range for treating depression", "value": "7 to 9", "unit": "days"}, {"measurement": "½ life", "setting": "[6]; stated with the mouse i.p. regimen of Example 2", "value": "1 to 2", "unit": "days"}]}
{"smiles": "C#CCN(C)Cc1ccccc1", "note": "[pargylline]", "values": [{"measurement": "osteoclast differentiation (TRAP+ multinucleated osteoclasts)", "setting": "RAW 264.7 cells; presence of RANKL", "value": "had no effect"}]}
{"smiles": "COC(=O)[C@H]1[C@H]2C[C@@H]3c4[nH]c5cc(OC)ccc5c4CCN3C[C@H]2C[C@@H](OC(=O)c2cc(OC)c(OC)c(OC)c2)[C@@H]1OC", "note": "[reserpine]", "values": [{"measurement": "TRAP expression by mono- and bi-nucleated cells", "setting": "RAW 264.7 cells; absence of RANKL", "value": "induced TRAP expression"}, {"measurement": "formation of large multinucleated osteoclasts", "setting": "RAW 264.7 cells; absence of RANKL", "value": "not formed"}, {"measurement": "osteoclast differentiation (TRAP+ multinucleated osteoclasts)", "setting": "RAW 264.7 cells; presence of RANKL", "value": "promoted osteoclast differentiation"}, {"measurement": "cell size and multinucleation", "setting": "RAW 264.7 cells; presence of RANKL, reserpine treatment", "value": "stimulated the formation of much larger cells with greater multinucleation"}]}
{"smiles": "NCCc1c[nH]c2ccc(O)cc12", "note": "[serotonin, 5-hydroxytryptamine]", "values": [{"measurement": "MMP-9 expression", "setting": "[3]; [11]", "value": "up-regulated"}, {"measurement": "cathepsin K expression", "setting": "[3]; [11]", "value": "up-regulated"}, {"measurement": "number of osteoclasts", "setting": "RAW 264.7 cells; added serotonin at 30 or 300 ng/ml, 5-HT depleted FBS, RANKL-stimulated", "value": "significantly increased"}, {"measurement": "osteoclast formation", "setting": "RAW 264.7 cells; addition of serotonin 3-300 ng/ml, cultures containing FBS (5-HT replete)", "value": "had no effect"}]}
